Legend:
[1] = parameters: method as in earlier work; settings: rodents; tissue-to-plasma distribution ratios (Kp) indicating substantial binding to tissue components; ref 16 (ARV-110), ref 17 (A947); cited from earlier work
[2] = Equilibrium dialysis binding to HEK293 cell homogenate (fraction unbound); assay type: in vitro ADME; settings: human, pH 7.4; fraction unbound in HEK293 cell homogenate, 10 × 10^6 cells/mL, 0.1 μM, 4 h, 37 °C; read-out: fu,hom
Method: (§1) The unbound fraction of a selected series of PROTACs was determined through equilibrium dialysis against the cell homogenate. HEK293 cells (ATCC, Manassas, VA) were grown in Dulbecco’s modified Eagle’s medium (DMEM) supplemented with 10% fetal bovine serum (FBS) at 37 °C, 95% relative humidity, and 5% CO2. Cell pellets were harvested using 0.05% trypsin and centrifuged at 260g for 5 min. The cells were resuspended in Dulbecco’s phosphate buffer (DPBS), counted using a Luna II cell counter (Logos Biosystems, Anyang, South Korea) and centrifuged at 260g. The supernatant was discarded, and cell pellets were stored at −80 °C prior to cell homogenate preparation. On the day of the experiment, cell pellets were thawed and resuspended in Hank’s balanced salt solution (HBSS) buffered with 20 mM HEPES (pH 7.4) to a concentration of 10 × 10^6 cells/mL. The cell suspension was homogenized using ultrasonication for 10 s at 20% intensity while kept on ice.
(§2) Compound stability was assessed by adding the compound-spiked cell homogenate to an empty well in the dialysis cassette. At the end of the experiment, these concentrations were compared to identical control samples stored at 4 °C. Mass balance was calculated at the end of each experiment. Further, in all wells, two control compounds (atorvastatin and lopinavir) were included to ensure that the assay plate was functional. All compounds were tested in triplicate in one experiment. Compound 2 was only detected on the cell homogenate side, and thus, the concentration on the buffer side was set to half of the lower limit of quantification to allow calculation of an approximate cell homogenate binding.
(§3) Final samples were matrix matched by taking 1 part sample and 1 part blank cell homogenate or buffer. Proteins were precipitated using 1 part matrix matched sample and 3 parts acetonitrile supplemented with 0.3% formic acid (FA) and 5 nM verapamil (internal standard), and this was diluted 1:1 with Milli-Q prior to centrifugation at 2500g for 20 min. Compound concentrations in the supernatant were quantified using a reversed phase system with a Waters Acquity UPLC HSS T3 column (50 × 2.1 mm, 1.8 μm) in an Aquity UPLC connected to a Xevo TQ-XS mass spectrometer (Waters Corp., Milford, MA). The chromatographic run was done using solvent A (0.1% FA in Milli-Q) and solvent B (0.1% FA in acetonitrile Optima LC/MS grade (Fisher Scientific)) with isocratic conditions between 0 and 0.3 min (99.8% solvent A and 0.2% solvent B), a linear gradient between 0.3 and 1.3 min (from 0.2% to 95% solvent B), isocratic conditions between 1.3 and 1.8 min (95% solvent B), and equilibration back to start conditions between 1.8 and 2.3 min. Mass transitions, cone voltages, and collision energies can be found in Table S4.

HEK293 cell homogenate = experiment: as above; assay type: in vitro ADME; settings: equilibrium dialysis, HEK293 cell homogenate, 0.1 μM
Method: as §1, §2, §3

[3] = Caco-2 A-B passive permeability with preincubation, transporter-inhibited; assay type: in vitro ADME; settings: human, Caco-2, with 50 μM quinidine, 30 μM benzbromarone, 20 μM sulfasalazine; Figure 3A grouping; read-out: Passive Caco-2 cell permeability group (high, moderate or low)
Method: (§4) Transepithelial transport of the compounds through a Caco-2 monolayer (ATCC, HTB-37) was determined in 14–18 days old monolayers in Costar 24-well cell culture cluster plates (polycarbonate membrane, 0.4 μm pore size). Chamber volumes were 200 and 800 μL on the apical and basolateral sides of the cell monolayers, respectively, and all incubations were performed with prewarmed buffers in an orbital shaking incubator at 480 rpm and 37 °C. Prior to the assay, cells were washed with HBSS supplemented with 25 mM HEPES (HBSS-HEPES), pH 7.4, to remove the culture medium. After 15 min of equilibration, the transepithelial electrical resistance (TEER) was determined to assess acceptance of the cell plates into the assay. A second measurement and a lucifer yellow leakage determination was carried out after performing all the transport experiments to monitor integrity of the cell monolayers throughout the study.
(§5) Before the permeability study, to minimize nonspecific binding of PROTACs to the cells and plates, the cells were preincubated with 10 μM compound solution on the apical (donor) side for 1 h, analogous to Muschong et al. Then, cells were washed twice with HBSS-MES pH 6.5 containing 1% BSA. Then, permeability in the absorptive direction (A–B, apical-to-basolateral) was studied over 120 min at a 10 μM test compound concentration. The compound solutions were freshly prepared from DMSO stock solutions diluted into HBSS supplemented with 25 mM MES, pH 6.5, containing efflux inhibitors (50 μM quinidine, 30 μM benzbromarone, and 20 μM sulfasalazine); the final solvent concentration was always 0.5%.
(§6) Samples from the donor side (10 μL) were drawn immediately after the addition of the test compound and after 45 and 120 min. The donor samples were diluted 1:10 in HBSS. From the receiver compartment, an amount of 100 μL was withdrawn after 45 and 120 min and replaced with fresh HBSS-HEPES, pH 7.4.
(§7) Upon completion of the study, all samples were quenched with 300 μL of acetonitrile and analyzed subsequently using UPLC/MS/MS. The permeability was determined as the appearance rate of the compound on the receiver side, in relation to donor concentration, according to eq 4 Papp=dQ/[(dt)(T)]×A/D where dQ/[(dt)(T)] is the slope of the permeation profile across the Caco-2 cell monolayers, A is the surface area of the Transwell insert (0.33 cm^2), and D is the concentration on the donor side. Following the permeability experiments, recovery from the donor and receiver compartments was calculated using eq 5 recovery(%)(0−120min)=CR120×VR+CR45×0.1+CD45×0.01+CD120×VD/D0×VD×100

Caco-2 monolayer = experiment: as above; assay type: in vitro ADME; settings: recovery from donor and receiver compartments, 0-120 min
Method: as §4, §5, §6, §7

Question: With `N#Cc1ccc(O[C@H]2CC[C@H](NC(=O)c3ccc(N4CCC(CN5CCN(c6cc7c(cc6F)C(=O)N(C6CCC(=O)NC6=O)C7=O)CC5)CC4)nn3)CC2)cc1Cl` (stereo partly shown) [ARV-110] as the molecule, how does the tissue distribution [1] read?
Answer: widespread and extensive tissue distribution

Question: What does the source list for `Cc1ccc(C(=O)NCCCCc2cn(CCCC(=O)NCCCCNc3cccc4c3C(=O)N(C3CCC(=O)NC3=O)C4=O)nn2)cc1-n1c(C)cc(OCc2ccc(F)cc2F)c(Br)c1=O` (stereo not shown) [Compound 3]?
Answer: fraction unbound at 4 h, 0.1 μM [2]: 0.24; fu,hom mass balance (HEK293 cell homogenate): 111%; Papp A→B at 120 min, 10 μM [3]: < 0.5 ×10⁻⁶ cm/s; Papp Recovery (%) (0-120 min) (Caco-2 monolayer): 94%

Question: With `Cc1ncsc1-c1ccc(CNC(=O)[C@@H]2C[C@@H](O)CN2C(=O)[C@@H](NC(=O)COCCCCOc2ccc(-c3ccc(N4C(=S)N(c5ccc(C#N)c(C(F)(F)F)c5)C(=O)C4(C)C)cc3)cc2)C(C)(C)C)cc1` [Compound 2] as the molecule, how does the fraction unbound at 4 h, 0.1 μM [2] read?
Answer: 0.016

Question: And the “fu,hom mass balance” value (HEK293 cell homogenate)?
Answer: 109%

Question: And the Papp A→B at 120 min, 10 μM [3]?
Answer: < 0.5 ×10⁻⁶ cm/s

Question: What about the “Papp Recovery (%) (0-120 min)” value (Caco-2 monolayer) of the same molecule?
Answer: 87%

Question: For `CCCOc1cccc(Oc2cc3c(cc2NS(=O)(=O)c2cccc(C(=O)NCCOCCOCCOCC(=O)N[C@@H](C(=O)N4C[C@@H](O)C[C@@H]4C(=O)NCc4ccc(-c5scnc5C)cc4)C(C)(C)C)c2)n(C)c(=O)n3C)c1` [Compound 4], which fraction unbound at 4 h, 0.1 μM [2] is on record?
Answer: 0.2

Question: What about the “fu,hom mass balance” value (HEK293 cell homogenate) of the same molecule?
Answer: 66%

Question: What about the Papp A→B at 120 min, 10 μM [3] of the same molecule?
Answer: 0.5 to 10 ×10⁻⁶ cm/s

Question: What about the “Papp Recovery (%) (0-120 min)” value (Caco-2 monolayer) of the same molecule?
Answer: 78%
